Data taken from patent publication US20230416196A1, “DIMER OF BIGUANIDINES AND THEIR THERAPEUTIC USES” (INSTITUT CURIE, priority 2020, published 2023).

Experiments:
[1] = system: inflammatory macrophages (act. MDM); assay: Flow cytometry of CD80 and CD86 cell surface markers in activated MDM (Example 2); assay type: cell-based, human; details: LCC-12 10 μM; FIG. 4F
Description: Cell culture. Peripheral blood samples were collected from distinct healthy donors (Etablissement Français du Sang). Pan monocytes were isolated by negative magnetic sorting using microbeads according to the manufacturer's instructions (Miltenyi Biotec, 130-096-537), and cultured in RPMI 1640 supplemented with glutamine (Thermo Fisher Scientific, 61870010), 10% fetal bovine serum and exposed to granulocyte-macrophage colony-stimulating factor (GM-CSF, Miltenyi Biotec, 130-093-866, 100 ng/mL) to induce differentiation into macrophages (MDM). At day 5 of differentiation, MDM were treated with lipopolysaccharides (LPS, InvivoGen, tlrl-3pelps, 100 ng/mL, 24 h) and interferon-γ (IFNγ, Miltenyi Biotec, 130-096-484, 20 ng/mL, 24 h) to generate activated MDM (act. MDM) and were co-treated with metformin (Met, 1,1-dimethylbiguanid hydrochloride, Alfa Aesar, J63361, 10 mM, 24 h) or LCC-12 (in-house, 10 μM, 24 h) as indicated.
Flow cytometry. […] Macrophages were analyzed with an antibody panel consisting of antibodies against the following cell surface proteins: CD44, CD80, CD86 and TfR1. The data were analyzed with FlowJo software v. […] Flow cytometry analysis of lysosomal iron content: Lysosomal iron was monitored by incubating cells at 37° C. with 5% CO2 in medium containing RhoNox-M (in-house, 1 μM, 1 h), before flow analysis of fluorescence intensity.

[2] = system: inflammatory genes in activated MDM; assay: RNA-seq gene expression in activated MDM; assay type: cell-based, human; details: LCC-12 10 μM; FIG. 4A-C
Description: Cell culture. Peripheral blood samples were collected from distinct healthy donors (Etablissement Français du Sang). Pan monocytes were isolated by negative magnetic sorting using microbeads according to the manufacturer's instructions (Miltenyi Biotec, 130-096-537), and cultured in RPMI 1640 supplemented with glutamine (Thermo Fisher Scientific, 61870010), 10% fetal bovine serum and exposed to granulocyte-macrophage colony-stimulating factor (GM-CSF, Miltenyi Biotec, 130-093-866, 100 ng/mL) to induce differentiation into macrophages (MDM). […]
RNA-seq. […] Sequencing was carried out on a NovaSeq 6000 instrument from Illumina based on a 2×100 cycle mode (paired-end reads, 100 bases). Raw sequencing reads were first checked for quality with Fastqc (0.11.8) and trimmed for adapter sequences with the trimGalore (0.6.2) software. Trimmed reads were then aligned on the human hg38 reference genome using the STAR mapper (2.6.1b), up to the generation of a raw count table per gene (GENCODE annotation v29). […] Raw data from (Fernandes et al., 2016, 7, e00027-16; Gongalves et al., 2020, Nat. Commun. 11, 2282) were downloaded from the NCBI Short Read Archive under records PRJNA528433 and PRJNA290995 and processed as described above. […] Differential expression was assessed with the limma voom framework (v 3.44.3) (Ritchie et al., 2015, Nucleic Acids Res. 43, e47). […]

[3] = Copper-catalyzed oxidation of NADH by H2O2 (cell-free); assay type: biochemical; details: H2O2 present; FIG. 3C
Description: Copper-catalyzed oxidation of NADH. The oxidation kinetics of NADH (N4505, Sigma-Aldrich) was followed by measurement of absorbance at 340 nm using a NanoDrop 2000. Measurements were performed at 26° C. A 10 mM sodium phosphate buffer adjusted to pH=7.2 was used as solvent. Each 500 μL mixture were prepared with NADH (400 μM), imidazole (56750, Sigma-Aldrich, 10 mM), CuSO4 (451657, Sigma-Aldrich, 4 μM), LCC/K2CO3 solution (1:1) (4 μM or 400 μM), metformin/K2CO3 solution (2:1) (J63361, Alfa Aesar, 800 μM), as indicated, and a H2O2 solution (16911, Sigma-Aldrich, 2 mM from an aq. solution 25-35% in H2O2) added at the reaction start time. The concentration of NADH was calculated from the measured absorbance at 340 nm and a molar extinction coefficient of […] L mol^−1 cm^−1.

N=C(N)NC(=N)NCCCCCCCCCCCCNC(=N)NC(=N)N [LCC-12, lipophilic copper clamp C12]
production of inflammatory macrophages according to CD80 and CD86 cell surface markers [1]: interfered with the production of inflammatory macrophages
expression of inflammatory genes compared to activated MDM [2]: reduced expression of a subset of inflammatory genes
rate of NADH oxidation catalyzed by copper(II) [3]: more pronounced effect
